Consider 1 compound from article PMC12647892, “State-selective small molecule degraders that preferentially remove aggregates and oligomers” (Nature Communications, 2025).

For this test, the target named is T1, TRIM21 PRYSPRY (Homo sapiens, UniProt P19474).
T1 construct: PRYSPRY domain (TRIM21his-PS)
Kind of test: crystal structure; fluorescence polarisation, tryptophan quenching, nanoDSF. In kind it is binding. Background: Polarisation of emitted light reports the rotation of a fluorescent probe.

T1 sequence (P19474 287-465 limits assumed): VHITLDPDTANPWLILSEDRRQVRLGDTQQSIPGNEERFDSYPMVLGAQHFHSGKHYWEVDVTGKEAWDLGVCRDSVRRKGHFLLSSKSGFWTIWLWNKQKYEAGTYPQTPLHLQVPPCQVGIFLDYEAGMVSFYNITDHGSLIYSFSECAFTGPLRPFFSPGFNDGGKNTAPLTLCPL

Take `CNC(=O)[C@H](Cc1ccncc1)NC(=O)[C@@H]1C[C@@H](C2CCCCC2)CN1C(=O)C[C@H](N)c1ccccc1OC` [MRC37]: the Kd (usually the free concentration of one partner at which half of the binding sites on the other are occupied at equilibrium, for simple one-to-one binding) came out at 400 nM.
